IC50 data for 32 compounds are collected here from US11524968B2, “Heterocyclic compound as a protein kinase inhibitor” (HK inno.N Corporation, priority 2017, dated 2022).

Where only a bound is given, the exact number is not on record here.

For this assay, the target named is JAK1 (Homo sapiens (Human), UniProt P23458). Nature of the assay: Analysis of JAK1 activity inhibition ability (ADP-Glo Kinase Assay). Type of assay: biochemical. The settings on record: JAK1 enzyme, ADP-Glo luminescence, ATP 250 uM, IRS-itide substrate, 30° C. 40 minutes; read-out: IC50. In short, it runs like this:
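JAK1 enzyme, IRS-itide substrate (40 ng/mL) and 250 uM ATP, both as prepared in kinase buffer (Tris-HCl pH 7.5, MgCl2, BSA, DTT), reacted with compound 40 min at 30 °C. ADP formed was detected by ADP-Glo luminescence; IC50 is the concentration giving 50% inhibition versus control.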

Sequence of JAK1 (P23458 whole entry): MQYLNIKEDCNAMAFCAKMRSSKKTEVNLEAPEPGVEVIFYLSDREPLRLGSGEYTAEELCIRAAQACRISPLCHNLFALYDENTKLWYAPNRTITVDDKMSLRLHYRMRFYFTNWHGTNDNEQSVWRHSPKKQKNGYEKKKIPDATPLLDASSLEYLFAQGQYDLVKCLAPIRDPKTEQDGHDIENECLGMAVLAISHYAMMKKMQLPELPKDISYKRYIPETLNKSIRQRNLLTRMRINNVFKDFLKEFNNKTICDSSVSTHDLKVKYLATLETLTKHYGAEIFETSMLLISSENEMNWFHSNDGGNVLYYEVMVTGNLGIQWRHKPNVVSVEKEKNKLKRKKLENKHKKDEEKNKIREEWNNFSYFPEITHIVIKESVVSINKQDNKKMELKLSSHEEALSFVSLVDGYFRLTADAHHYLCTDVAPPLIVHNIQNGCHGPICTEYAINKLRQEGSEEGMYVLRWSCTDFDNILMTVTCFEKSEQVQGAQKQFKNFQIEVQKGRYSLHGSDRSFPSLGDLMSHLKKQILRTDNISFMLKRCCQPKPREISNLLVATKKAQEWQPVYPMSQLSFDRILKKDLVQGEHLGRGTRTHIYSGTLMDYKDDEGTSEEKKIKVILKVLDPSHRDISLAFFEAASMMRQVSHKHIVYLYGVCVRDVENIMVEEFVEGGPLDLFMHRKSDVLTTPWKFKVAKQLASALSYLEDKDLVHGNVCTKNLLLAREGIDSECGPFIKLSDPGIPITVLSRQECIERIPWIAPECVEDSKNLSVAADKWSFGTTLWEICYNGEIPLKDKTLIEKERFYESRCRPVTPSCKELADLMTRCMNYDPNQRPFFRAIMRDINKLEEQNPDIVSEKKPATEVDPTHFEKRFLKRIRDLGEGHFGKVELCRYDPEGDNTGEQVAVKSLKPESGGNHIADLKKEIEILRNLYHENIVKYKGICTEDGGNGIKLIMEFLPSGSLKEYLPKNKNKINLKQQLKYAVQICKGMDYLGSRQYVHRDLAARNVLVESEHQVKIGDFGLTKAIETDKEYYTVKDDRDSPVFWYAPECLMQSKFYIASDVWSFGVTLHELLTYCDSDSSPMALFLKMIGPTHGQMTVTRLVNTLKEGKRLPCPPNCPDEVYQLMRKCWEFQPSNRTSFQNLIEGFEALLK

Turning to `CCS(=O)(=O)Nc1ccc(-c2cc(NC(=O)C3CC3)nc3[nH]cnc23)cc1` [Example 207, N-(7-(4-(ethylsulfonamido)phenyl)-3H-imidazo[4,5-b]pyridin-5-yl)cyclopropanecarboxamide], the IC50 is above 200 nM.

`O=C(Nc1nc(-c2ccc(NS(=O)(=O)c3ccc(F)c(F)c3)cc2)c2nc[nH]c2n1)C1CC1` [Example 208, N-(6-(4-((3,4-difluorophenyl)sulfonamido)phenyl)-9H-purin-2-yl)cyclopropanecarboxamide]: the IC50 is above 200 nM.

As to `CCS(=O)(=O)Nc1ccc(-c2nc(NC(=O)C3CC3)nc3[nH]cnc23)cc1` [Example 209, N-(6-(4-(ethylsulfonamido)phenyl)-9H-purin-2-yl)cyclopropanecarboxamide], the IC50 is above 200 nM.

For `N#CCCCS(=O)(=O)Nc1ccc(-c2nc(NC(=O)C3CC3)nc3[nH]cnc23)cc1` [Example 210, N-(6-(4-((3-cyanopropyl)sulfonamido)phenyl)-9H-purin-2-yl)cyclopropanecarboxamide], the IC50 is above 200 nM.

`O=C(Nc1nc(-c2ccc(NS(=O)(=O)CCCC(F)(F)F)cc2)c2nc[nH]c2n1)C1CC1` [Example 211, N-(6-(4-((4,4,4-trifluorobutyl)sulfonamido)phenyl)-9H-purin-2-yl)cyclopropanecarboxamide]: the IC50 was above 200 nM.

Turning to `CCCS(=O)(=O)N1CC=C(c2cc(NC(=O)C3CC3)nc3[nH]ccc23)C1` [Example 212, N-(4-(1-(propylsulfonyl)-2,5-dihydro-1H-pyrrol-3-yl)-1H-pyrrolo[2,3-b]pyridin-6-yl)cyclopropanecarboxamide], the IC50 was above 200 nM.

Turning to `N#CC1(CS(=O)(=O)N2CC=C(c3cc(NC(=O)C4CC4)nc4[nH]ccc34)C2)CC1` [Example 213, N-(4-(1-(((1-cyanocyclopropyl)methyl)sulfonyl)-2,5-dihydro-1H-pyrrol-3-yl)-1H-pyrrolo[2,3-b]pyridin-6-yl)cyclopropanecarboxamide], the IC50 is above 200 nM.

For `O=C(Nc1cc(-c2ccc(NS(=O)(=O)N3CCOCC3)cc2)c2cc[nH]c2n1)C1CC1` [Example 214, N-(4-(4-(morpholine-4-sulfonamido)phenyl)-1H-pyrrolo[2,3-b]pyridin-6-yl)cyclopropanecarboxamide], the IC50 is below 20 nM.

As to `CCN(C)S(=O)(=O)Nc1ccc(-c2cc(NC(=O)C3CC3)nc3[nH]ccc23)cc1` [Example 215, N-(4-(4-((N-ethyl-N-methylsulfamoyl)amino)phenyl)-1H-pyrrolo[2,3-b]pyridin-6-yl)cyclopropanecarboxamide], the IC50 was below 20 nM.

As for `CCN(CC)S(=O)(=O)Nc1ccc(-c2cc(NC(=O)C3CC3)nc3[nH]ccc23)cc1` [Example 216, N-(4-(4-((N,N-diethylsulfamoyl)amino)phenyl)-1H-pyrrolo[2,3-b]pyridin-6-yl)cyclopropanecarboxamide], the IC50 lay in the range of 20 to 200 nM.

Take `CN(C1CC1)S(=O)(=O)Nc1ccc(-c2cc(NC(=O)C3CC3)nc3[nH]ccc23)cc1` [Example 217, N-(4-(4-((N-cyclopropyl-N-methylsulfamoyl)amino)phenyl)-1H-pyrrolo[2,3-b]pyridin-6-yl)cyclopropanecarboxamide]: the IC50 was below 20 nM.

Take `O=C(Nc1cc(-c2ccc(NS(=O)(=O)N3CCCC3)cc2)c2cc[nH]c2n1)C1CC1` [Example 218, N-(4-(4-(pyrrolidine-1-sulfonamido)phenyl)-1H-pyrrolo[2,3-b]pyridin-6-yl)cyclopropanecarboxamide]: the IC50 was below 20 nM.

Consider `O=C(Nc1cc(-c2ccc(NS(=O)(=O)N3CCCCC3)cc2)c2cc[nH]c2n1)C1CC1` [Example 219, N-(4-(4-(piperidine-1-sulfonamido)phenyl)-1H-pyrrolo[2,3-b]pyridin-6-yl)cyclopropanecarboxamide], for which the IC50 is below 20 nM.

For the compound `CC1CN(S(=O)(=O)Nc2ccc(-c3cc(NC(=O)C4CC4)nc4[nH]ccc34)cc2)CC(C)O1` (centres unmarked) [Example 220, N-(4-(4-((2,6-dimethylmorpholine)-4-sulfonamido)phenyl)-1H-pyrrolo[2,3-b]pyridin-6-yl)cyclopropanecarboxamide], the IC50 was in the range of 20 to 200 nM.

On to `N#CC1CN(S(=O)(=O)Nc2ccc(-c3cc(NC(=O)C4CC4)nc4[nH]ccc34)cc2)C1` [Example 221, N-(4-(4-((3-cyanoazetidine)-1-sulfonamido)phenyl)-1H-pyrrolo[2,3-b]pyridin-6-yl)cyclopropanecarboxamide], for which the IC50 was in the range of 20 to 200 nM.

With `CC(C)N(C)S(=O)(=O)Nc1ccc(-c2cc(NC(=O)C3CC3)nc3[nH]ccc23)cc1` [Example 222, N-(4-(4-((N-isopropyl-N-methylsulfamoyl)amino)phenyl)-1H-pyrrolo[2,3-b]pyridin-6-yl)cyclopropanecarboxamide], the IC50 fell in the range of 20 to 200 nM.

For the compound `COCCN(C)S(=O)(=O)Nc1ccc(-c2cc(NC(=O)C3CC3)nc3[nH]ccc23)cc1` [Example 223, N-(4-(4-((N-(2-methoxyethyl)-N-methylsulfamoyl)amino)phenyl)-1H-pyrrolo[2,3-b]pyridin-6-yl)cyclopropanecarboxamide], the IC50 lay within 20 to 200 nM.

As to `O=C(Nc1cc(-c2ccc(NS(=O)(=O)N3CCCCC3)c(F)c2)c2cc[nH]c2n1)C1CC1` [Example 224, N-(4-(3-fluoro-4-(piperidine-1-sulfonamido)phenyl)-1H-pyrrolo[2,3-b]pyridin-6-yl)cyclopropanecarboxamide], the IC50 was below 20 nM.

On to `O=C(Nc1cc(-c2ccc(NS(=O)(=O)N3CCCC3)c(F)c2)c2cc[nH]c2n1)C1CC1` [Example 225, N-(4-(3-fluoro-4-(pyrrolidine-1-sulfonamido)phenyl)-1H-pyrrolo[2,3-b]pyridin-6-yl)cyclopropanecarboxamide], for which the IC50 is below 20 nM.

`O=C(Nc1cc(-c2ccc(NS(=O)(=O)N3CCOCC3)c(F)c2)c2cc[nH]c2n1)C1CC1` [Example 226, N-(4-(3-fluoro-4-(morpholine-4-sulfonamido)phenyl)-1H-pyrrolo[2,3-b]pyridin-6-yl)cyclopropanecarboxamide]: the IC50 is below 20 nM.

Take `Cc1cc(NS(=O)(=O)NCC(F)(F)F)ccc1-c1cc(NC(=O)C2CC2)nc2[nH]ccc12` [Example 227, N-(4-(2-methyl-4-((N-(2,2,2-trifluoroethyl)sulfamoyl)amino)phenyl)-1H-pyrrolo[2,3-b]pyridin-6-yl)cyclopropanecarboxamide]: the IC50 fell in the range of 20 to 200 nM.

On to `Cc1cc(NS(=O)(=O)N(C)CC(F)(F)F)ccc1-c1cc(NC(=O)C2CC2)nc2[nH]ccc12` [Example 228, N-(4-(2-methyl-4-((N-methyl-N-(2,2,2-trifluoroethyl)sulfamoyl)amino)phenyl)-1H-pyrrolo[2,3-b]pyridin-6-yl)cyclopropanecarboxamide], for which the IC50 is below 20 nM.

Consider `O=C(Nc1cc(-c2ccc(NS(=O)(=O)N3CCS(=O)(=O)CC3)cc2)c2cc[nH]c2n1)C1CC1` [Example 229, N-(4-(4-((1,1-dioxidothiomorpholine)-4-sulfonamido)phenyl)-1H-pyrrolo[2,3-b]pyridin-6-yl)cyclopropanecarboxamide], for which the IC50 was below 20 nM.

For the compound `CS(=O)(=O)N1CCN(S(=O)(=O)Nc2ccc(-c3cc(NC(=O)C4CC4)nc4[nH]ccc34)cc2)CC1` [Example 230, N-(4-(4-((4-(methylsulfonyl)piperazine)-1-sulfonamido)phenyl)-1H-pyrrolo[2,3-b]pyridin-6-yl)cyclopropanecarboxamide], the IC50 was below 20 nM.

As to `O=C(Nc1cc(C2=CCC(NS(=O)(=O)N3CCOCC3)CC2)c2cc[nH]c2n1)C1CC1` (centres unmarked) [Example 231, N-(4-(4-(morpholine-4-sulfonamido)cyclohex-1-en-1-yl)-1H-pyrrolo[2,3-b]pyridin-6-yl)cyclopropanecarboxamide], the IC50 was below 20 nM.

As to `O=C(Nc1cc(C2=CCN(S(=O)(=O)NCC(F)(F)F)CC2)c2cc[nH]c2n1)C1CC1` [Example 232, N-(4-(1-(N-(2,2,2-trifluoroethyl)sulfamoyl)-1,2,3,6-tetrahydropyridin-4-yl)-1H-pyrrolo[2,3-b]pyridin-6-yl)cyclopropanecarboxamide], the IC50 lay within 20 to 200 nM.

As to `CN(CC(F)(F)F)S(=O)(=O)N1CC=C(c2cc(NC(=O)C3CC3)nc3[nH]ccc23)CC1` [Example 233, N-(4-(1-(N-methyl-N-(2,2,2-trifluoroethyl)sulfamoyl)-1,2,3,6-tetrahydropyridin-4-yl)-1H-pyrrolo[2,3-b]pyridin-6-yl)cyclopropanecarboxamide], the IC50 was in the range of 20 to 200 nM.

Take `O=C(Nc1cc(C2=CCN(S(=O)(=O)N3CCOCC3)CC2)c2cc[nH]c2n1)C1CC1` [Example 234, N-(4-(1-(morpholinosulfonyl)-1,2,3,6-tetrahydropyridin-4-yl)-1H-pyrrolo[2,3-b]pyridin-6-yl)cyclopropanecarboxamide]: the IC50 lay within 20 to 200 nM.

`O=C(Nc1nc(-c2ccc(NS(=O)(=O)N3CCOCC3)cc2)c2cc[nH]c2n1)C1CC1` [Example 235, N-(4-(4-(morpholine-4-sulfonamido)phenyl)-7H-pyrrolo[2,3-d]pyrimidin-2-yl)cyclopropanecarboxamide]: the IC50 lay within 20 to 200 nM.

For the compound `CN(C)S(=O)(=O)Nc1ccc(-c2nc(NC(=O)C3CC3)nc3[nH]ccc23)cc1` [Example 236, N-(4-(4-((N,N-dimethylsulfamoyl)amino)phenyl)-7H-pyrrolo[2,3-d]pyrimidin-2-yl)cyclopropanecarboxamide], the IC50 was in the range of 20 to 200 nM.

On to `CC1CN(S(=O)(=O)Nc2ccc(-c3nc(NC(=O)C4CC4)nc4[nH]ccc34)cc2)CC(C)O1` (centres unmarked) [Example 237, N-(4-(4-((2,6-dimethylmorpholine)-4-sulfonamido)phenyl)-7H-pyrrolo[2,3-d]pyrimidin-2-yl)cyclopropanecarboxamide], for which the IC50 is above 200 nM.

With `O=C(Nc1nc(-c2ccc(NS(=O)(=O)N3CCOCC3)cc2)c2nc[nH]c2n1)C1CC1` [Example 238, N-(6-(4-(morpholine-4-sulfonamido)phenyl)-9H-purin-2-yl)cyclopropanecarboxamide], the IC50 was above 200 nM.
